Test results: US8481525B2, “Kinase inhibitors and method of treating cancer with same” (University of Health Network, priority 2009, dated 2013)
Where a name gives a salt, the structure may show the parent alone. Read-outs that look alike come from different tables or passages of the source.

Key:
Assay in all cases: Cell growth inhibition, Sulforhodamine B assay (SRB)
Assay type in all cases: cell-based
[1] = system: A549 lung cancer cell line; details: Homo sapiens, read-out: Cell Line GI50 Range A-549
Protocol: (§1) The cells were cultured for 5 days before the Sulforhodamine B assay (SRB) was performed to determine the compound's cell growth inhibition activity.
(§2) Sulforhodamine B (purchased from Sigma, Oakville, ON, Canada) is a water-soluble dye that binds to the basic amino acids of the cellular proteins. Thus, colorimetric measurement of the bound dye provides an estimate of the total protein mass that is related to the cell number. the cells are fixed in situ by gently aspirating off the culture media and adding 50 μl ice cold 10% Trichloroacetic Acid (TCA) per well and incubate at 4° C. for 30-60 min, The plates are washed with water five times and allowed to air dry for 5 min. […] Following staining, plates are washed four times with 1% acetic acid to remove unbound dye and then allowed to air dry for 5 min. […] Absorbance is read at 570 nm.
(§3) The percentage (%) of relative growth inhibition was calculated by comparing to DMSO treated only cells (100%). GI50's were determined for compounds with cytotoxic activity. The GI50 was calculated using GraphPad PRISM software (GraphPad Software, Inc., San Diego, Calif., USA).

[2] = system: HCC1954 basal breast cancer cell line; details: Homo sapiens
Protocol: as §1, §2, §3

[3] = system: MCF-7 luminal breast cancer cell line; details: Homo sapiens, MCF7, 120 h
Protocol: as §1, §2, §3

[4] = system: MDA-MB-468 basal breast cancer cell line; details: Homo sapiens, 5 days culture, SRB
Protocol: as §1, §2, §3

[5] = system: SW620 colon cancer cell line; details: Homo sapiens, SW-620, 120 h
Protocol: as §1, §2, §3

[6] = 120 h, A549 lung cancer cell line, 5 days culture, SRB
[7] = HCC1954, 120 h, HCC1954 basal breast cancer cell line, 5 days culture, SRB, read-out: Cell Line GI50 Range HCC-1954
[8] = MCF-7 luminal breast cancer cell line, 5 days culture, SRB, read-out: Cell Line GI50 Range MCF-7
[9] = 120 h, MDA-MB-468 basal breast cancer cell line, read-out: Cell Line GI50 Range MDA-MB-468
[10] = SW620 colon cancer cell line, 5 days culture, SRB, read-out: Cell Line GI50 Range SW-620
[11] = 120 h, HCC1954 basal breast cancer cell line, 5 days culture, SRB, read-out: Cell Line GI50 Range HCC-1954
[12] = HCC1954, 120 h, read-out: Cell Line GI50 Range HCC-1954
[13] = read-out: Cell Line GI50 Range MCF-7, MCF-7 luminal breast cancer cell line, 5 days culture, SRB
[14] = read-out: Cell Line GI50 Range SW-620, SW620 colon cancer cell line, 5 days culture, SRB

GI50 [1, 6] [µM]	GI50 [3, 8] [µM]	GI50 [4, 9] [µM]	GI50 [5, 10] [µM]	GI50 [2, 11] [µM]	SMILES	other results
1 to 10	1 to 10	0.1 to 1	1 to 10	–	O=C1Nc2ncc(Br)cc2[C@@]12C[C@@H]2c1ccc2c(/C=C/c3cccnc3)n[nH]c2c1 (racemic) [Example A27, (1R*,2S*)-5′-bromo-2-(3-((E)-2-(pyridin-3-yl)vinyl)-1H-indazol-6-yl)spiro[cyclopropane-1,3′-pyrrolo[2,3-b]pyridin]-2′(1′H)-one]	GI50 [2, 7]: 1 to 10 µM
1 to 10	1 to 10	–	–	–	O=C1Nc2ccccc2[C@@]12C[C@@H]2c1ccc2c(/C=C/c3cccnc3)n[nH]c2c1 (racemic) [Example A28, (1R*,2S*)-2-(3-((E)-2-(pyridin-3-yl)vinyl)-1H-indazol-6-yl)spiro-[cyclopropane-1,3′-indolin]-2′-one]	GI50 [2, 7]: 1 to 10 µM
< 0.1	> 10	0.1 to 1	< 0.1	> 10	COc1ccc2c(c1)[C@@]1(C[C@@H]1c1ccc3c(-c4ccnc(N5CCN(C)CC5)c4)n[nH]c3c1)C(=O)N2 (racemic) [Example A37, (1R*,2S*)-5′-Methoxy-2-(3-(2-(4-methylpiperazin-1-yl)pyridin-4-yl)-1H-indazol-6-yl)spiro[cyclopropane-1,3′-indolin]-2′-one]	–
–	–	–	–	–	COc1ccc2c(c1)[C@@]1(C[C@@H]1c1ccc3c(-c4ccc(N5CCN(C)CC5)cc4)n[nH]c3c1)C(=O)N2 (racemic) [Example A38, (1R*,2S*)-5′-Methoxy-2-(3-(4-(4-methylpiperazin-1-yl)phenyl)-1H-indazol-6-yl)spiro[cyclopropane-1,3′-indolin]-2′-one]	GI50 ([1]; A549, 120 h): < 0.1 µM; GI50 ([2]; HCC1954, 120 h, read-out: Cell Line GI50 Range HCC-1954, HCC1954 basal breast cancer cell line, 5 days culture, SRB): > 10 µM; GI50 ([3]; read-out: Cell Line GI50 Range MCF-7): 0.1 to 1 µM; GI50 ([4]; MDA-MB-468, 120 h, read-out: Cell Line GI50 Range MDA-MB-468, MDA-MB-468 basal breast cancer cell line): < 0.1 µM; GI50 ([5]; read-out: Cell Line GI50 Range SW-620): 0.1 to 1 µM
1 to 10	1 to 10	1 to 10	1 to 10	> 10	COc1ccc2c(c1)[C@@]1(C[C@@H]1c1ccc3c(-c4cccc(CO)c4)n[nH]c3c1)C(=O)N2 (racemic) [Example A43, (1R*,2S*)-2-(3-(3-(hydroxymethyl)phenyl)-1H-indazol-6-yl)-5′-methoxy spiro[cyclopropane-1,3′-indolin]-2′-one 2,2,2-trifluoroacetate]	–
0.1 to 1	1 to 10	0.1 to 1	1 to 10	> 10	COc1ccc2c(c1)[C@@]1(C[C@@H]1c1ccc3c(-c4ccc(CO)cc4)n[nH]c3c1)C(=O)N2 (racemic) [Example A45, (1R*,2S*)-2-(3-(4-(hydroxymethyl)phenyl)-1H-indazol-6-yl)-5′-methoxyspiro[cyclopropane-1,3′-indolin]-2′-one 2,2,2-trifluoroacetate]	–
1 to 10	1 to 10	1 to 10	1 to 10	–	COc1ccc2c(c1)[C@@]1(C[C@@H]1c1ccc3c(-c4cccc(N5CCNCC5)c4)n[nH]c3c1)C(=O)N2 (racemic) [Example A47, (1R*,2S*)-5′-methoxy-2-(3-(3-(piperazin-1-yl)phenyl)-1H-indazol-6-yl)spiro[cyclopropane-1,3′-indolin]-2′-one 2,2,2-trifluoroacetate]	GI50 [2, 7]: 1 to 10 µM
–	–	–	–	–	COc1ccc2c(c1)[C@]1(C[C@H]1c1ccc3c(/C=C/c4ccc(CN5CCCCC5)nc4)n[nH]c3c1)C(=O)N2 (racemic) [Example A62, (1R,2S)-(E)-5′-methoxy-2-(3-((E)-2-(6-(piperidin-ylmethyl)pyridin-3-yl)vinyl)-1H-indazol-6-yl)spiro[cyclopropane-1,3′-indolin]-2′-one 2,2,2-trifluoroacetate salt]	GI50 [2, 12]: 1 to 10 µM
< 0.1	< 0.1	< 0.1	0.1 to 1	–	CN1C(=O)[C@@]2(C[C@H]2c2ccc3c(/C=C/c4ccc(CN5CCOCC5)cc4)n[nH]c3c2)c2ccccc21 (racemic) [Example A87, (1R*,2S*)-(E)-1′-methyl-2-(3-(4-(morpholinomethyl)styryl)-1H-indazol-6-yl)spiro[cyclopropane-1,3′-indolin]-2′-one 2,2,2-trifluoroacetate]	GI50 [2, 7]: 1 to 10 µM
< 0.1	0.1 to 1	0.1 to 1	< 0.1	1 to 10	COc1ccc2c(c1)[C@@]1(C[C@@H]1c1ccc3c(-c4ccc(N5CCN(C)CC5)cc4)n[nH]c3c1)C(=O)N2C (racemic) [Example A100, (1R*,2S*)-5′-methoxy-1′-methyl-2-(3-(4-(4-methylpiperazin-1-yl)phenyl)-1H-indazol-6-yl)spiro[cyclopropane-1,3′-indolin]-2′-one 2,2,2-trifluoroacetate]	–
> 10	1 to 10	1 to 10	> 10	> 10	NS(=O)(=O)c1cccc(-c2n[nH]c3cc([C@@H]4C[C@@]45C(=O)Nc4ccccc45)ccc23)c1 (racemic) [Example A130, 3-(6-((1R*,2S*)-2′-oxospiro[cyclopropane-1,3′-indoline]-2-yl)-1H-indazol-3-yl)benzenesulfonamide]	–
–	< 0.1	–	0.1 to 1	> 10	COc1ccc2c(c1)[C@]1(C[C@H]1c1ccc3c(/C=C/c4cccc(CN5CCOCC5)c4)n[nH]c3c1)C(=O)N2 (racemic) [Example A133, (1R*,2S*)-5′-methoxy-2-(3-(3-(morpholinomethyl)styryl)-1H-indazol-6-yl)spiro[cyclopropane-1,3′-indolin]-2′-one 2,2,2-trifluoroacetate]	–
–	–	–	0.1 to 1	–	COc1ccc2c(c1)[C@]1(C[C@H]1c1ccc3c(/C=C/c4cccc(CN(C)C)c4)n[nH]c3c1)C(=O)N2 (racemic) [Example A135, (1R*,2S*)-2-(3-(3-((dimethylamino)methyl)styryl)-1H-indazol-6-yl)-5′-methoxyspiro[cyclopropane-1,3′-indolin]-2′-one 2,2,2-trifluoroacetate]	GI50 [2, 7]: > 10 µM
0.1 to 1	0.1 to 1	0.1 to 1	0.1 to 1	0.1 to 1	Cc1ccc2c(c1)[C@@]1(C[C@@H]1c1ccc3c(-c4ccc(N5CCN(C)CC5)cc4)n[nH]c3c1)C(=O)N2 (racemic) [Example A173, (1R*,2S*)-5′-methyl-2-(3-(4-(4-methylpiperazin-1-yl)phenyl)-1H-indazol-6-yl)spiro[cyclopropane-1,3′-indolin]-2′-one 2,2,2-trifluoroacetate]	–
–	–	–	–	–	O=C1Nc2ccc(F)cc2[C@@]12C[C@@H]2c1ccc2c(/C=C/c3ccc(CN4CCOCC4)cc3)n[nH]c2c1 (racemic) [Example A219, (1R*,2S*)-(E)-5′-fluoro-2-(3-(4-(morpholinomethyl)styryl-1H-indazol-6-yl)spiro[cyclopropane-1,3′-indolin]-2′-one 2,2,2-trifluoroacetate]	GI50 [2, 12]: 0.1 to 1 µM; GI50 [3, 13]: 0.1 to 1 µM
–	–	–	–	–	CCN(CC)Cc1ccc(/C=C/c2n[nH]c3cc([C@@H]4C[C@@]45C(=O)Nc4ccccc45)ccc23)cc1 (relative stereo) [Example A211, (1R*,2S*)-(E)-2-(3-(4-((diethylamino)methyl)styryl)-1H-indazol-6-yl)spiro-[cyclopropane-1,3′-indolin]-2′-one 2,2,2-trifluoroacetate]	GI50 [3, 13]: 0.1 to 1 µM; GI50 [5, 14]: 0.1 to 1 µM
–	–	–	–	–	CN(C)Cc1ccc(/C=C/c2n[nH]c3cc([C@@H]4C[C@@]45C(=O)Nc4ccccc45)ccc23)cc1 [Example A24, (1R,2S)-(E)-2-(3-(4-((dimethylamino)methyl)styryl)-1H-indazol-6-yl)spiro[cyclopropane-1,3′-indolin]-2′-one 2,2,2-trifluoroacetate]	GI50 [5, 14]: < 0.1 µM

SMILES	GI50 [1, 6] [µM]	GI50 [3, 8] [µM]	GI50 [4, 9] [µM]	GI50 [5, 10] [µM]	GI50 [2, 11] [µM]	other results
COc1ccc2c(c1)[C@]1(CC1c1ccc3c(/C=C/c4ccc(CN5C[C@@H](C)O[C@@H](C)C5)cc4)n[nH]c3c1)C(=O)N2 (relative stereo) [Example A186, (1R*,2S*)-(E)-2-(3-(4-trans-2,6-dimethylmorpholino)methyl)styryl)-1H-indazol-6-yl)-5′-methoxspiro[cyclopropane-1,3′-indolin]-2′-one 2,2,2-trifluoroacetate]	–	–	–	–	1 to 10	–
